Columns and labels:
APOL1 G2 [1] = target: T1, APOL1 G2 (Homo sapiens, UniProt O14791, DEL388-389); test: Rescue of HEK293 cell death caused by overexpression of APOL1 (CellTiter-Glo luminescence), HEK293/T-REx APOL1 G2/clone #2; type: cell-based; conditions: reversal of cell death caused by overexpression of APOL1; geometric mean of at least 2 assay runs, † = single assay run (technical duplicate)
T1 construct: expressed in transfected cells; host or cells: HEK293 T-REx clonal lines: HEK T-REx/GCaMP6f/APOL1 G2 K6.3 in A1, HEK293/T-REx APOL1 G2/clone #2 in A2
T1 sequence (O14791 with tags, fused parts or gaps DEL388-389): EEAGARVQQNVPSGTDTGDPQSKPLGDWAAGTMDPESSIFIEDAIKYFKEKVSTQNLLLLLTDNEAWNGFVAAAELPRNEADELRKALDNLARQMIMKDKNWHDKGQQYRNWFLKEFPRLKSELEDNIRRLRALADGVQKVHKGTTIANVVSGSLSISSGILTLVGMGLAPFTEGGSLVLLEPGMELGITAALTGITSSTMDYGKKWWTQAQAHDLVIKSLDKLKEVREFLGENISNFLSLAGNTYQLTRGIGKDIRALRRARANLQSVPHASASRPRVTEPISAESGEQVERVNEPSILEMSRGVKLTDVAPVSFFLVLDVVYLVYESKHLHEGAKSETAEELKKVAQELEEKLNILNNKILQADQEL
Experimental: A HEK293 clonal cell line overexpressing APOL1 G2 (HEK293/T-REx APOL1 G2/clone #2) was maintained in 1×DMEM-GlutaMax (Gibco, 10569-010) media with 10% tetracycline-free FBS (Takara Bio USA, 631101), 5 μg/mL Blasticidin (Gibco, A1113903), and 100 μg/mL Zeocin (Invitrogen, R25001) in T75 flasks. In preparation for the assay, this media was aspirated and 2 mL of prewarmed TrypLE Express (Gibco, 12605-010) was added to a flask to detach cells. The flask was then incubated (humidified, 37° C. with 5% CO2) for 3-5 minutes. Afterwards, 8 mL of prewarmed cell assay media (lx DMEM-GlutaMax media with 10% tetracycline-free FBS) was added to the trypsinized cells. The suspension was gently mixed, and cells were counted using a Countess Cell Counting Chamber (Invitrogen). The suspension was diluted using cell assay media to generate a working stock solution (166,667 cells/mL). Using a MultiDrop Combi (Thermo Electron Corp), 30 μL (final cell density=5,000 cells/well) of the working stock solution was dispensed into each well of white 384-well assay ready plates (Nunc™, 164610) containing 6 ng/mL doxycycline, to induce APOL1 expression, and compound. All compounds were plated in a duplicate 8-point dilution series that consisted of 3-fold stepwise dilutions (0.5% DMSO final). Assay plates were incubated (humidified, 37° C. with 5% CO2) for 17 hours. After the incubation, the plates were equilibrated at room temperature for 1 hour. Next, 15 μl of CellTiter-Glo® reagent (Promega, G7570) was added to each well using a MultiDrop Combi. Plates were placed on an orbital shaker (500 rpm) for 5 minutes to induce cell lysis and then incubated at room temperature for 10 minutes. Luminescence was measured on an Envision plate reader. Collaborative Drug Discovery software was utilized for graphing data. Plots were generated using a four parameter logistic curve fit.
Table B2 below provides the results from this experiment. Unless otherwise specified, EC50 values are reported as the geometric mean of at least 2 assay runs on separate days. Each run represents the average of a technical replicate, where each compound was assayed twice in the same plate. A superscript t symbol indicates a value from the average of a technical replicate from a single assay run, where each compound was assayed twice in the same plate. Compounds in Table B2 are referred to by the corresponding Compound Number in Table 1, which is also referred to in the synthetic examples. When one or more of the numbered compounds are identified by stereochemistry (for example, (R)- or (S)—), the specific stereoisomer for which data is provided in Table B2 may be identified by the elution order of such compound as described in the synthetic examples. To illustrate, Compound 2 is the first-eluting enantiomer of step 4 of Example 1 and Compound 3 is the second-eluting enantiomer of step 4 of Example 1. Further, by way of illustration, Compound 27 is the first-eluting enantiomeric mixture in step 4 of Example 7 and Compound 28 is the second-eluting enantiomeric mixture in step 4 of Example 7. Then, Compound 27 is separated into Compound 29 (the first-eluting enantiomer) and Compound 30 (the second-eluting enantiomer) in Example 8, and Compound 28 is separated into Compound 31 (the first-eluting enantiomer) and Compound 32 (the second-eluting enantiomer) in Example 8. Absolute stereochemistry of such compounds may be identified by methods known in the art.
Rescue EC50 values reported in Table B2 below represent the half-maximal effective concentration for reversal of cell death caused by overexpression of APOL1.

APOL1 G2 [2] = target: T1, APOL1 G2; test: APOL1 calcium transport inhibition assay (GCaMP6f calcium influx, FLIPR) in HEK T-REx/GCaMP6f/APOL1 G2 K6.3 cells; type: cell-based; conditions: inhibition of APOL1-mediated calcium influx; geometric mean of at least 2 assay runs, † = single assay run (technical duplicate)
Experimental: A HEK293 clonal cell line was generated to stably express GCaMP6f, a genetically encoded calcium indicator, and inducibly express APOL1 G2 (HEK T-REx/GCaMP6f/APOL1 G2 K6.3). Cells were maintained in the following standard complete medium: DMEM with 4.5 g/L glucose and sodium pyruvate (BioWhittaker, Lonza, BE12-614F), supplemented with 10% FBS Performance Plus (Gibco, 16000044), 1% penicillin-streptomycin (BioWhittaker, DE17-602E), 2 mM ultraglutamine-1 (BioWhittaker cat. BE 17-605/U1), 50 μg/mL Zeocin (InvivoGen, ant-zn), 2.5 μg/mL Blasticidin (InvivoGen, ant-bl-5), and 25 μg/mL Hygromycin (InvivoGen, ant-hg). Standard propagation conditions consisted of plating 9×10^6, 4×10^6, 2×10^6 cells in a T225 flasks to be processed after 2, 3, or 4 days, respectively.
A source plate was generated containing 20 serially diluted compounds in DMSO (duplicate 8-point dose response). Next, 0.8 μL of compounds were transferred from the source plate to a destination plate prefilled with 79.2 μL of Ca^2+ free Tyrode's buffer (130 mM NaCl, 5 mM KCl, 1 mM MgCl2, 5 mM NaHCO3, 20 mM HEPES at pH 7.4). The destination plate was placed on a plate shaker (5 seconds at 2000 rpm) to mix. […] All transfer and mixing steps were conducted with an CyBi®-Well dispenser.
Cells were split by gently washing with DPBS (Euroclone, ECB4004L), followed by a 5-minute incubation (humidified, 37° C. with 5% CO2) with trypsin-EDTA solution (Euroclone, ECB3052D). Detached cells were diluted with standard complete medium without selective agents, counted, and plated in a 384 MTP microplate (GR4332CPL, Twin Helix) (10,000 cells/well in 25 μl/well) using a MATRIX WellMate dispenser. Plates were placed into a humidified incubator (37° C. with 5% CO2) overnight. The following day, 20 μL of doxycycline (Sigma, D9891) at 20 ng/mL in standard complete medium was added to cells with a CyBi @Drop dispenser to induce APOL1 G2 expression. After a 6-hour incubation (humidified, 37° C. with 5% CO2), cells were washed 3 times with Ca^2+ free Tyrode's Buffer (130 mM NaCl, 5 mM KCl, 1 mM MgCl2, 5 mM NaHCO3, 20 mM HEPES at pH 7.4) using a BIOTEK Microplate washer, such that 10 μL of buffer remained in each well after the final wash. Assay plates were then stored at room temperature for 10 minutes. Next, 10 μL of diluted compounds were transferred to the assay plate from the 2× compound plate using a CyBi®-Well dispenser. Compound incubation was then carried out at room temperature for 10 minutes. The assay plate was transferred to the […] and 20 μL of 10 mM Ca^2+ (final concentration=5 mM) Tyrode's buffer was injected.
Table B1 below summarizes the data from this experiment. Unless otherwise specified, AC50 and values are reported as the geometric mean of at least 2 assay runs on separate days. Each run represents the average of a technical replicate, where each compound was assayed twice in the same plate. A superscript † symbol indicates a value from the average of a technical replicate from a single assay run, where each compound was assayed twice in the same plate.
The AC50 values in Table B1 below reflect the compound's ability to prevent calcium influx by inhibiting APOL1. […] Compounds in Table B1 are referred to by the corresponding Compound Number in Table 1, which is also referred to in the synthetic examples. When one or more of the numbered compounds are identified by stereochemistry (for example, (R)- or (S)—), the specific stereoisomer for which data is provided in Table B1 may be identified by the elution order of such compound as described in the synthetic examples. To illustrate, Compound 2 is the first-eluting enantiomer of step 4 of Example 1 and Compound 3 is the second-eluting enantiomer of step 4 of Example 1. Further, by way of illustration, Compound 27 is the first-eluting enantiomeric mixture in step 4 of Example 7 and Compound 28 is the second-eluting enantiomeric mixture in step 4 of Example 7. […]

AC50 (APOL1 G2 [2])	SMILES	EC50 (APOL1 G2 [1])
266 nM	CN(c1ccc(OCC2CCCN(CCc3cccc(Cl)c3)C2)cc1)S(C)(=O)=O (single isomer, unassigned) [Compound 8, (S) or (R)—N-(4-((1-(3-chlorophenethyl)piperidin-3-yl)methoxy)phenyl)-N-methylmethanesulfonamide]	132 nM
151 nM	CN(c1ccc(OCC2CCCN(CCc3cccc(Cl)c3)C2)cc1)S(C)(=O)=O (single isomer, unassigned) [Compound 9, (R) or (S)—N-(4-((1-(3-chlorophenethyl)piperidin-3-yl)methoxy)phenyl)-N-methylmethanesulfonamide]	263 nM
1190 nM	CN(c1ccc(OCC2CN(CCc3cccc(Cl)c3)CCCO2)cc1)S(C)(=O)=O (single isomer, unassigned) [Compound 11, (R) or (S)-N-(4-((4-(3-chlorophenethyl)-1,4-oxazepan-2-yl)methoxy)phenyl)-N-methylmethane-sulfonamide]	1000 nM
2390 nM	CN(c1ccc(OCC2CN(CCc3cccc(Cl)c3)CCCO2)cc1)S(C)(=O)=O (single isomer, unassigned) [Compound 12, (S) or (R)-N-(4-((4-(3-chlorophenethyl)-1,4-oxazepan-2-yl)methoxy)phenyl)-N-methylmethane-sulfonamide]	3000 nM
5730 nM	CS(=O)(=O)c1ccc(OC[C@H]2CCCN(CC(O)c3cccc(Cl)c3)C2)cc1 (single isomer, unassigned) [Compound 18, (R) or (S)-1-(3-chlorophenyl)-2-((S)-3-((4-(methylsulfonyl)phenoxy)methyl)piperidin-1-yl)ethan-1-ol]	6320 nM
480 nM	CS(=O)(=O)c1ccc(OC[C@H]2CCCN(CC(O)c3cccc(Cl)c3)C2)cc1 (single isomer, unassigned) [Compound 19, (S) or (R)-1-(3-chlorophenyl)-2-((S)-3-((4-(methylsulfonyl)phenoxy)methyl)piperidin-1-yl)ethan-1-ol]	374 nM
623 nM	CS(=O)(=O)c1ccc(OC[C@@H]2CCCN(CC(O)c3cccc(Cl)c3)C2)cc1 (single isomer, unassigned) [Compound 21, (R) or (S)-1-(3-chlorophenyl)-2-((R)-3-((4-(methylsulfonyl)phenoxy)methyl)piperidin-1-yl)ethanol]	1020 nM
6410 nM	CS(=O)(=O)c1ccc(OC[C@@H]2CCCN(CC(O)c3cccc(Cl)c3)C2)cc1 (single isomer, unassigned) [Compound 22, (S) or (R)-1-(3-chlorophenyl)-2-((R)-3-((4-(methylsulfonyl)phenoxy)methyl)piperidin-1-yl)ethanol]	6590 nM
640 nM	COC(CN1CCC[C@H](COc2ccc(S(C)(=O)=O)cc2)C1)c1cccc(Cl)c1 (single isomer, unassigned) [Compound 23, (S)-1-((R)-2-(3-chlorophenyl)-2-methoxyethyl)-3-((4-(methylsulfonyl)phenoxy)methyl)piperidine or (S)-1-((S)-2-(3-chlorophenyl)-2-methoxyethyl)-3-((4-(methylsulfonyl)phenoxy)methyl)piperidine]	677 nM
501 nM	COC(CN1CCC[C@H](COc2ccc(S(C)(=O)=O)cc2)C1)c1cccc(Cl)c1 (single isomer, unassigned) [Compound 24, (S)-1-((S)-2-(3-chlorophenyl)-2-methoxyethyl)-3-((4-(methylsulfonyl)phenoxy)methyl)piperidine or (S)-1-((R)-2-(3-chlorophenyl)-2-methoxyethyl)-3-((4-(methylsulfonyl)phenoxy)methyl)piperidine]	334 nM

Reference: patent US20240316038A1, “APOL1 INHIBITORS AND METHODS OF USE” (Maze Therapeutics, Inc., priority 2021, published 2024)
